Converted amounts (≈) assume the structure as drawn.
details: buffer; pH 7.4; 200.0 µM

SMILES	solubility kinetic [µg/mL]
CCOC(=O)C1(Cc2cccc(F)c2)CCN(C(=O)C2CCC2)CC1	> 52.1
Cc1nc(-c2ccc(Cl)cc2)sc1C(=O)O	33.2 (≈ 131 µM)
c1ccc(-c2nc3cccnc3nc2-c2ccccc2)cc1	33.1 (≈ 117 µM)
COc1ccc(OC)c(-c2cc(C(=O)N3CCOCC3)no2)c1	> 47.7
O=C(COC(=O)c1cncc(Br)c1)NC1CCCC1	> 49.1
COc1ccc(OCC(=O)NCCCCCCNC(=O)COc2ccc(OC)cc2)cc1	2.6 (≈ 5.85 µM)
O=C(NCc1ccco1)C(=O)c1cn(CC(=O)N2CCCC2)c2ccccc12	> 56.9
CC(=O)c1c(C)[nH]c(C(=O)NNC(=O)c2ccc(C)cc2)c1C	> 47
Cc1cc(C)c(C)c(S(=O)(=O)NC(C(=O)O)C(C)C)c1C (centres undefined)	> 47
O=C(Nc1cc(S(=O)(=O)N2CCCCC2)ccc1Cl)C1COc2ccccc2O1 (centres undefined)	5.4 (≈ 12.4 µM)
CC(=O)c1c(C)[nH]c(C(=O)Nc2cc(F)ccc2C)c1C	4.5 (≈ 15.6 µM)
Cc1ccc2nc(C)cc(C(=O)NC3CCCCCC3)c2c1	3.6 (≈ 12.1 µM)
O=C(COC(=O)c1ccco1)Nc1ccc2[nH]c(=O)[nH]c2c1	9.3 (≈ 30.9 µM)
N#Cc1ccc(CN2CCN(C(=O)C3CC(=O)N(c4ccccc4F)C3)CC2)cc1 (centres undefined)	> 61
C[C@H](Cc1ccccc1)Nc1ncnc2c1ncn2[C@@H]1O[C@H](CO)[C@@H](O)[C@H]1O	> 57.8
O=C(NCCCCO)c1ccc2c3c(cccc13)CC2	39.2 (≈ 146 µM)

SMILES	solubility kinetic [µg/mL]
OCCN(Cc1ccccc1)c1ncnc2sccc12	> 42.8
Cc1nc2cc(NS(=O)(=O)c3cccc(F)c3)ccc2s1	> 48.4
O=C1C2C3CCC(CC3)C2C(=O)N1c1ccccc1 (centres undefined)	11.6 (≈ 45.4 µM)
CC(NC(=O)c1ccco1)C(=O)OC(C)C(=O)NCc1ccccc1 (centres undefined)	46.3 (≈ 134 µM)
O=C(CN1C(=O)NC2(CCCCC2)C1=O)N1CCc2ccccc2C1	> 51.2
O=C(COC(=O)c1ccc(Br)o1)Nc1cccc(S(=O)(=O)N2CCOCC2)c1	59.2 (≈ 125 µM)
COc1cc(C(=S)N2CCCC2)cc(OC)c1OC	> 42.2
COc1ccc(NS(=O)(=O)c2c(C)[nH]c(=O)[nH]c2=O)cc1OC	> 51.2
Cc1nc(SCC(=O)O)c(C#N)c2c1CCCC2	> 39.3
CN(CCO)CC(O)CN(c1ccccc1)c1ccccc1.Cl (centres undefined)	49.9
Cl.NC(Cc1ccccc1)C(=O)N1CCCCC1 (centres undefined)	> 40.3
Cc1cc(N2CCCC2=O)ccc1S(=O)(=O)NC1CCCCC1	29.3 (≈ 87.1 µM)
NC(=O)COC(=O)CNC(=O)c1sc2ccccc2c1Cl	44.8 (≈ 137 µM)
Cc1ccc(C)c(NS(=O)(=O)c2csc(C(N)=O)c2)c1	36.3 (≈ 117 µM)
COc1ccccc1C(=O)NCCC(=O)N1CCCCC1	> 43.6
CCCS(=O)(=O)Nc1cccc(-c2nc3cccnc3s2)c1	2.4 (≈ 7.2 µM)

Continued, values first:

solubility kinetic [µg/mL]	SMILES
4.3 (≈ 12.1 µM)	COc1ccc(S(=O)(=O)NCc2ccccc2)cc1Br
> 43.4	COc1ccccc1CNC(=O)COC(=O)c1ccco1
6.4 (≈ 18.7 µM)	COc1ccc(OC)c(NC(=O)CC2Oc3ccccc3NC2=O)c1 (centres undefined)
4.8 (≈ 15.2 µM)	Cn1cccc1C(=O)OCC(=O)Nc1ccc2c(c1)OCCO2
5.4 (≈ 19.3 µM)	O=C(Nc1ccccc1)N(C1=NCCC1)c1ccccc1
> 47.3	CC(=O)C1=C(O)C(=O)N(Cc2ccco2)C1c1ccccc1F (centres undefined)
22.3 (≈ 98.1 µM)	CN(C)c1ccc(CNc2ccccn2)cc1
3.7 (≈ 10.7 µM)	CC(=O)Nc1cccc(-c2cc(-c3c(Cl)cccc3Cl)no2)c1
> 48.1	O=C(CCc1ccccc1)Nc1cc2c3c(c1)CC(=O)N3CCC2
> 45.9	COc1ccc(Cl)cc1C(=O)O/N=C(\N)c1ccccn1
2.2 (≈ 8.68 µM)	c1ccc(-c2csc(Nc3cccnc3)n2)cc1
36.5 (≈ 144 µM)	c1ccc(OCc2nc(-c3ccncc3)no2)cc1
> 56.8	O=C(O)c1ccc(NC(=O)c2ccccc2NC(=O)c2cccc(F)c2)cc1
14.2 (≈ 46.8 µM)	Cc1ccc(C)c(S(=O)(=O)NCCCc2ccccc2)c1
23.5 (≈ 116 µM)	Cc1ccccc1NC(=O)c1ccno1
46.9 (≈ 145 µM)	COc1ccc(NC(=O)CS(=O)(=O)c2ccc(F)cc2)cc1
> 50.1	Cl.Clc1cccc(CN2C3=NCCCN3c3ccccc32)c1
21.3 (≈ 69.8 µM)	Cc1cc(NC(=O)COC(=O)c2ccccc2[N+](=O)[O-])no1
0.8 (≈ 2.5 µM)	CC(=O)Nc1cccc(NC(=O)Nc2cccc3ccccc23)c1
36 (≈ 139 µM)	Cc1ccccc1NC(=O)CSc1ccncc1
> 42.9	CC(Oc1ccccc1)C(=O)Nc1cccc([N+](=O)[O-])c1 (centres undefined)
> 35.9	Cc1ccccc1Nc1ncnc2c1cnn2C
0.8 (≈ 2.64 µM)	Cc1c(Cl)cccc1NC(=O)c1cc(-c2ccco2)on1
2.1 (≈ 7.57 µM)	O=C(Nc1nc2ccccc2[nH]1)c1cc2ccccc2o1
> 52.7	O=C(CCc1nc2ccccc2s1)N1CCN(c2ccccc2)CC1
> 49.3	CN(Cc1c(F)cccc1Cl)C(=O)c1ccc2ccccc2n1
30.2 (≈ 143 µM)	CCCC(=O)NCc1ccccc1Cl

From PubChem BioAssay AID1996
